Source: patent US11279774B2, “Cyclodextrin dimers, compositions thereof, and uses thereof” (UNDERDOG PHARMACEUTICALS, INC., priority 2019, dated 2022)

Legend:
[1] = Turbidity assay (in vitro solubility assay), 7KC suspension; type: physicochemical; settings: 7KC vs cholesterol
Description: This single concentration of cyclodextrin is used in order to standardize the test results. To perform the test, the samples are incubated for 30 mins at 37 C, and then absorbance at 350 nm is measured, e.g., using a spectrophotometer plate reader. Relative turbidity is determined by dividing the measured turbidity in the presence of the cyclodextrin to the baseline turbidity without the cyclodextrin. A given cyclodextrin has greater affinity for 7KC than cholesterol if the relative turbidity of the 7KC suspension is lower than the relative turbidity of the cholesterol solution.

blood cells = assay: Hemolysis assay; type: cell-based; settings: 7.5 mM, three hours at 37 C
Description: For the test solutions, the amount of PBS varied depending on the concentration of cyclodextrin being tested. Samples were tested in triplicate. 50 μL of blood was added to each sample with PBS and cyclodextrin solution (stocks also made in PBS) to achieve the appropriate concentration in a final volume of 200 ul. 5% Triton X-100 was used as the positive control and PBS was the negative control. Once all the samples were mixed the samples were placed into a 37 C incubator for three hours with agitation. The positive control was 100% hemolyzed by Triton X-100 detergent. Once the samples were out of incubation, they were diluted by the same factor in a 96 hydrograde plate and normalized to the positive control absorbance, which is around 1.1. The absorbance is read at 540 nm. The average of the samples was then corrected by subtracting the negative control. The experiment was run three times, and the error bars are the standard error of the mean (Melanga [et al.], Journal of Pharmaceutical Sciences, 105(9):2921-31. (2016)), (Kiss [et al.], European Journal of Pharmaceutical Sciences, 40(4):376-80. (2010)).

[2] = test system: blood cells (whole blood); assay: Extraction of 7KC and cholesterol from blood cells (ex vivo whole blood, LC-MS/MS); type: cell-based, human; settings: whole blood incubated 3 hours at 37C; for plasma (serum) cholesterol levels: mass spectrometry
Description: Blood was collected from healthy volunteers by licensed phlebotomists. The test substances or PBS alone (negative control) were added to whole blood at various concentrations and incubated for 3 hours at 37C. Blood was then spun down and serum collected. Serum was frozen and then processed for mass spec.
Plasma free 7-ketocholesterol was determined by LC-MS/MS following protein precipitation and extraction with acetonitrile and derivatization with the novel quaternary aminooxy (QAO) mass tag reagent, Amplifex Keto Reagent (AB Sciex, Framingham, Mass., USA), which has been used in the analysis of testosterone (Star-Weinstock [et al.], Analytical Chemistry, 84(21):9310-9317. (2012)).
A 50 μL sample of plasma was spiked with 0.5 ng of the internal standard, d7-7-ketocholesterol (Toronto Research Chemicals, North York, Ontario, CA) prepared at 0.1 ng/μL in ethanol. The sample was treated with 250 μL of acetonitrile, vortex mixed, centrifuged to remove protein at 12,000×g for 10 min. The supernatant was dried under vacuum and then treated with 75 μL of QAO reagent. The working reagent was prepared by mixing 0.7 mL of Amplifex keto reagent with 0.7 mL of Amplifex keto diluent to prepare a 10 mg/mL stock. This stock was then diluted 1:4 with 5% acetic acid in methanol to a final working concentration of 2.5 mg/mL. The mixture was allowed to react at room temperature for two days before LC-MS/MS analysis.
Standards of 7-ketocholesterol (Toronto Research Chemicals, North York, Ontario, CA) were prepared from 1 to 100 ng/ml in charcoal stripped plasma, SP1070, (Golden West Biological, Temecula, Calif., USA) and in phosphate buffered saline. There was residual 7-ketocholesterol detected in the stripped plasma, so the standards from PBS were used.
QAO-7-ketocholesterol derivatives were analyzed using a 4000 Q-TRAP hybrid/triple quadrupole linear ion trap mass spectrometer (SCIEX, Framingham, Mass., USA) with electrospray ionization (ESI) in positive mode. The mass spectrometer was interfaced to a Shimadzu (Columbia, Md.) SIL-20AC XR auto-sampler followed by 2 LC-20AD XR LC pumps.
The instrument was operated with the following settings: source voltage […], GS1 50, GS2 50, CUR 20, TEM 550 and CAD gas medium. Compounds were quantified with multiple reaction monitoring (MRM) and transitions optimized by infusion of pure derivatized compounds as presented in Table 1 below. The bold transitions were used for quantification.
Separation was achieved using a Gemini 3μ C6-phenyl 110 Å, 100×2 mm column (Phenomenex, Torrance, Calif., USA) kept at 35° C. using a Shimadzu (Columbia, Md.) CTO-20AC column oven. The gradient mobile phase was delivered at a flow rate of 0.5 ml/min, and consisted of two solvents, A: 0.1% formic acid in water, B: 0.1% formic acid in acetonitrile. The initial concentration of solvent B was 20% followed by a linear increase to 60% B in 10 min, then to 95% B in 0.1 min, held for 3 minutes, decreased back to starting 20% B over 0.1 min, and then held for 4 min. […]
Data were acquired using Analyst 1.6.2 (SCIEX, Framingham, Mass., USA) and analyzed with Multiquant 3.0.1 (SCIEX, Framingham, Mass., USA) software. Sample values were calculated from standard curves generated from the peak area ratio of the analyte to internal standard versus the analyte concentration that was fit to a linear equation with 1/× weighting. The lower limit of quantification was 1 ng/mL with an accuracy of 102% and precision (relative standard deviation) of 8.5%. […]

## large-face triazole-linked beta-cyclodextrin HP(βCD-Triazole-βCD) DS˜3 [HPβCD -triazole-DS3]
[1]
  specificity for 7KC over cholesterol (turbidity): greater specificity for 7KC over cholesterol
[1]; listed as Triazole-linked HPβCD dimer (DS˜3)
  specificity for 7KC over cholesterol (turbidity): affinity and specificity for 7KC
[1]; listed as triazole dimers labeled DS 3
  specificity for 7KC over cholesterol (turbidity): greater specificity than DS 6 or DS 7 dimers

## large-face butyl-linked hydroxy-propyl beta-cyclodextrin HP(βCD-BUT-βCD), DS˜3 [DS3 butyl dimer]
[1]
  specificity for 7KC over cholesterol (turbidity): affinity and specificity for 7KC
[1]; listed as HPβCD-butyl-DS3
  specificity for 7KC over cholesterol (turbidity): greater specificity for 7KC over cholesterol

## large-face triazole-linked beta-cyclodextrin (βCD-(Triazole)1-BCD, DS=0) [CD-triazole-CD DS 0]
[1]
  specificity for 7KC over cholesterol (turbidity): specificity for 7KC over cholesterol
Blood cells
  hemolysis: ~5%

## large-face butyl-linked hydroxy-propyl beta-cyclodextrin HP(βCD-BUT-βCD), DS˜8 [DS8 HPβCD dimers]
[2]
  removal of 7KC from blood cells (plasma free 7KC): removed substantial quantities of 7KC
  plasma (serum) cholesterol levels: unperturbed
[2]; listed as HPβCD dimer
  plasma (serum) cholesterol levels: not perturbed
[2]; listed as HPβCD dimers (DS˜8)
  plasma (serum) cholesterol levels: does not appreciably impact plasma cholesterol levels
  removal of 7KC from blood cells (plasma free 7KC): much more efficiently than HPβCD monomers
